Results on 30 molecules are retold here after patent US9073940B2, “Tricyclic pyrazol amine derivatives” (MERCK SERONO SA, priority 2009, dated 2015).

Structures can show the parent of a compound that is named as a salt.

In this experiment the test system is 4 PI3K isoforms (Human recombinant GST-PI3K). The experiment in a line: PI3K scintillation proximity assay, best IC50 obtained with the four isoforms (alpha, beta, delta, gamma). The experiment is classed as biochemical. Conditions: best IC50 obtained with the four isoforms of PI3K; read-out: Best potency measured on the 4 PI3K isoforms. In general terms: SPA uses beads or plates that emit light when radiolabelled molecules are held near them.
In the case of “3-(Morpholin-4-ylcarbonyl)-1-phenyl-4H- imidazo[5,1-c][1,4]benzothiazine 5,5-dioxide [Example 486]”, the IC50 worked out at 2.74 µM.
Turning to `O=C(c1nn(C2CCCN(CCF)C2)c2c1CS(=O)(=O)c1ccccc1-2)N1CCOCC1` (single isomer, unassigned) [Example 221, 1-[1-(2-fluoroethyl)piperidin-3-yl]-3-(morpholin-4-ylcarbonyl)-1,4-dihydrothiochromeno[4,3-c]pyrazole 5,5-dioxide], the IC50 amounted to 0.32 µM.
Under `O=C(c1nn(C2CCCN(CCN3CC[C@H](F)C3)C2)c2c1CS(=O)(=O)c1ccccc1-2)N1CCOCC1` (single isomer, unassigned) [Example 282] stands 0.072 µM; under `O=C(c1nn(C2CCCN(CCN3CC[C@@H](F)C3)C2)c2c1CS(=O)(=O)c1ccccc1-2)N1CCOCC1` (single isomer, unassigned) [Example 283], 0.034 µM; under `O=C(c1nn([C@H]2CCCN(CCC3CCOCC3)C2)c2c1CS(=O)(=O)c1ccccc1-2)N1CCOCC1` (single isomer, unassigned) [Example 306, 3-(morpholin-4-ylcarbonyl)-1-{1-[2-(tetrahydro-2H-pyran-4-yl)ethyl]piperidin-3-yl}-1,4-dihydrothiochromeno[4,3-c]pyrazole 5,5-dioxide], 0.034 µM.
Under `O=C(c1nn([C@@H]2CCCN(CCC3CCOCC3)C2)c2c1CS(=O)(=O)c1ccccc1-2)N1CCOCC1` (single isomer, unassigned) [Example 307, 3-(morpholin-4-ylcarbonyl)-1-{1-[2-(tetrahydro-2H-pyran-4-yl)ethyl]piperidin-3-yl}-1,4-dihydrothiochromeno[4,3-c]pyrazole 5,5-dioxide] stands 2.2 µM; under `O=C(c1nn([C@@H]2CCCN(CCC3CCOCC3)C2)c2c1CS(=O)(=O)c1c(F)cccc1-2)N1CCOCC1` (single isomer, unassigned) [Example 343, 6-fluoro-3-(morpholin-4-ylcarbonyl)-1-{1-[2-(tetrahydro-2H-pyran-4-yl)ethyl]piperidin-3-yl}-1,4-dihydrothiochromeno[4,3-c]pyrazole 5,5-dioxide hydrochloride salt], 1.92 µM; under `O=C(c1nn([C@H]2CCCN(CCC3CCOCC3)C2)c2c1CS(=O)(=O)c1c(F)cccc1-2)N1CCOCC1` (single isomer, unassigned) [Example 344, 6-fluoro-3-(morpholin-4-ylcarbonyl)-1-{1-[2-(tetrahydro-2H-pyran-4-yl)ethyl]piperidin-3-yl}-1,4-dihydrothiochromeno[4,3-c]pyrazole 5,5-dioxide], 0.006 µM.
With `COCCN1CCC[C@@H](n2nc(C(=O)N3CCOCC3)c3c2-c2ccccc2S(=O)(=O)C3)C1` (single isomer, unassigned) [Example 347, 1-[1-(2-methoxyethyl)piperidin-3-yl]-3-(morpholin-4-ylcarbonyl)-1,4-dihydrothiochromeno[4,3-c]pyrazole 5,5-dioxide] the figure was 3.55 µM; with `O=C(c1nn([C@@H]2CCCN(CCN3CCOCC3)C2)c2c1CS(=O)(=O)c1ccccc1-2)N1CCOCC1` (single isomer, unassigned) [Example 348, 3-(morpholin-4-ylcarbonyl)-1-[1-(2-morpholin-4-ylethyl)piperidin-3-yl]-1,4-dihydrothiochromeno[4,3-c]pyrazole 5,5-dioxide], 1.28 µM.
As to `O=C(c1nn([C@@H]2CCN(C3CCOCC3)C2)c2c1CS(=O)(=O)c1c(F)cccc1-2)N1CCOCC1` (single isomer, unassigned) [Example 353, 6-fluoro-3-(morpholin-4-ylcarbonyl)-1-[1-(tetrahydro-2H-pyran-4-yl)pyrrolidin-3-yl]-1,4-dihydrothiochromeno[4,3-c]pyrazole 5,5-dioxide hydrochloride salt], the IC50 turned out to be 2.04 µM.
Under `O=C(c1nn([C@H]2CCN(CCC3CCOCC3)C2)c2c1CS(=O)(=O)c1c(F)cccc1-2)N1CCOCC1` (single isomer, unassigned) [Example 354, 6-fluoro-3-(morpholin-4-ylcarbonyl)-1-{1-[2-(tetrahydro-2H-pyran-4-yl)ethyl]pyrrolidin-3-yl}-1,4-dihydrothiochromeno[4,3-c]pyrazole 5,5-dioxide hydrochloride salt] stands 0.092 µM; under `O=C(c1nn([C@@H]2CCN(CCC3CCOCC3)C2)c2c1CS(=O)(=O)c1c(F)cccc1-2)N1CCOCC1` (single isomer, unassigned) [Example 356, 6-fluoro-3-(morpholin-4-ylcarbonyl)-1-{1-[2-(tetrahydro-2H-pyran-4-yl)ethyl]pyrrolidin-3-yl}-1,4-dihydrothiochromeno[4,3-c]pyrazole 5,5-dioxide hydrochloride salt], 1.69 µM.
Take `O=C(c1nn([C@@H]2CCCNC2)c2c1CS(=O)(=O)c1ccccc1-2)N1CCOCC1` (single isomer, unassigned) [Example 358]: the IC50 was 3 µM.
Under `O=C(c1nn([C@H]2CCCNC2)c2c1CS(=O)(=O)c1ccccc1-2)N1CCOCC1` (single isomer, unassigned) [Example 359] stands 1.06 µM.
On to `O=C(c1nn([C@H]2CCCN(CCN3CC(F)(F)C3)C2)c2c1CS(=O)(=O)c1ccccc1-2)N1CCOCC1` (single isomer, unassigned) [Example 362, 1-{1-[2-(3,3-difluoroazetidin-1-yl)ethyl]piperidin-3-yl}-3-(morpholin-4-ylcarbonyl)-1,4-dihydrothiochromeno[4,3-c]pyrazole 5,5-dioxide], for which the IC50 was 0.017 µM.
With `O=C(c1nn([C@H]2CCCN(CCN3CCC(F)CC3)C2)c2c1CS(=O)(=O)c1ccccc1-2)N1CCOCC1` (single isomer, unassigned) [Example 363, 1-{1-[2-(4-fluoropiperidin-1-yl)ethyl]piperidin-3-yl}-3-(morpholin-4-ylcarbonyl)-1,4-dihydrothiochromeno[4,3-c]pyrazole 5,5-dioxide] the figure was 0.025 µM.
Under `O=C(c1nn([C@H]2CCCN(CCN3CC[C@@H](F)C3)C2)c2c1CS(=O)(=O)c1ccccc1-2)N1CCOCC1` (single isomer, unassigned) [Example 364, 1-(1-{2-[3-fluoropyrrolidin-1-yl]ethyl}piperidin-3-yl)-3-(morpholin-4-ylcarbonyl)-1,4-dihydrothiochromeno[4,3-c]pyrazole 5,5-dioxide] stands 0.014 µM.
With `O=C(c1nn([C@@H]2CCCN(CCF)C2)c2c1CS(=O)(=O)c1ccccc1-2)N1CCOCC1` (single isomer, unassigned) [Example 366] the figure was 7.97 µM.
Consider `O=C(c1nn([C@H]2CCCN(CCN3CCC(F)C3)C2)c2c1CS(=O)(=O)c1ccccc1-2)N1CCOCC1` (single isomer, unassigned) [Example 367], for which the IC50 was determined as 0.032 µM.
Under `COc1ccc2c(c1)S(=O)(=O)Cc1c(C(=O)N3CCOCC3)nn([C@H]3CCCN(CCC4CCOCC4)C3)c1-2` (single isomer, unassigned) [Example 369] stands 0.027 µM; under `CC1(C)CN(CCN2CCC[C@H](n3nc(C(=O)N4CCOCC4)c4c3-c3ccccc3S(=O)(=O)C4)C2)CCO1` (single isomer, unassigned) [Example 370, 1-{1-[2-(2,2-dimethylmorpholin-4-yl)ethyl]piperidin-3-yl}-3-(morpholin-4-ylcarbonyl)-1,4-dihydrothiochromeno[4,3-c]pyrazole 5,5-dioxide], 0.073 µM.
With `O=C(c1nn([C@@H]2CCCN(CC3CCOCC3)C2)c2c1CS(=O)(=O)c1ncccc1-2)N1CCOCC1` (single isomer, unassigned) [Example 371, 3-(morpholin-4-ylcarbonyl)-1-[1-(tetrahydro-2H-pyran-4-ylmethyl)piperidin-3-yl]-1,4-dihydropyrazolo[3′,4′:4,5]thiopyrano[2,3-b]pyridine 5,5-dioxide] the figure was 0.83 µM; with `O=C(c1nn([C@H]2CCCN(CCF)C2)c2c1CS(=O)(=O)c1ccccc1-2)N1CCOCC1` (single isomer, unassigned) [Example 372, 1-[1-(2-fluoroethyl)piperidin-3-yl]-3-(morpholin-4-ylcarbonyl)-1,4-dihydrothiochromeno[4,3-c]pyrazole 5,5-dioxide], 0.2 µM; with `COc1ccc2c(c1)S(=O)(=O)Cc1c(C(=O)N3CCOCC3)nn([C@@H]3CCCN(CCC4CCOCC4)C3)c1-2` (single isomer, unassigned) [Example 373], 10.3 µM.
Under `O=C(c1nn([C@H]2CCCN(CC3CCOCC3)C2)c2c1CS(=O)(=O)c1ncccc1-2)N1CCOCC1` (single isomer, unassigned) [Example 376, 3-(morpholin-4-ylcarbonyl)-1-[1-(tetrahydro-2H-pyran-4-ylmethyl)piperidin-3-yl]1,4-dihydropyrazolo[3′,4′:4,5]thiopyrano[2,3-b]pyridine 5,5-dioxide] stands 0.013 µM.
For the molecule `CC1COCCN1CCN1CCC[C@H](n2nc(C(=O)N3CCOCC3)c3c2-c2ccccc2S(=O)(=O)C3)C1` (single isomer, unassigned) [Example 377, 1-{1-[2-(3-methylmorpholin-4-yl)ethyl]piperidin-3-yl}-3-(morpholin-4-ylcarbonyl)-1,4-dihydrothiochromeno[4,3-c]pyrazole 5,5-dioxide], the IC50 turned out to be 0.101 µM.
Under `C[C@@H]1CN(CCN2CCC[C@H](n3nc(C(=O)N4CCOCC4)c4c3-c3ccccc3S(=O)(=O)C4)C2)C[C@H](C)O1` (single isomer, unassigned) [Example 378] stands 0.065 µM.
With `O=C(c1nn([C@@H]2CCCN(C3CCCOC3)C2)c2c1CS(=O)(=O)c1ncccc1-2)N1CCOCC1` (single isomer, unassigned) [Example 379, 3-(morpholin-4-ylcarbonyl)-1-[1-(tetrahydro-2H-pyran-3-yl)piperidin-3-yl]-1,4-dihydropyrazolo[3′,4′:4,5]thiopyrano[2,3-b]pyridine 5,5-dioxide] the figure was 2.93 µM; with `O=C(c1nn([C@H]2CCCN(C3CCCOC3)C2)c2c1CS(=O)(=O)c1ncccc1-2)N1CCOCC1` (single isomer, unassigned) [Example 381, 3-(morpholin-4-ylcarbonyl)-1-[1-(tetrahydro-2H-pyran-3-yl)piperidin-3-yl]-1,4-dihydropyrazolo[3′,4′:4,5]thiopyrano[2,3-b]pyridine 5,5-dioxide], 0.036 µM.
